{"source": "patent US11466032B2", "about": "“Cytotoxic agents” (FEMTOGENIX LIMITED, priority 2017, dated 2022)", "key": {"[1]": {"system": "HexA and MS1 DNA fragments", "assay": "DNA footprinting", "format": "binding", "settings": "X is any base, Y is G or C, W is A or T; overnight incubation", "method": "The sequence selectivity of 26 and 34 was investigated using a modification of the previously established DNA footprinting assay^25. Following an overnight incubation of the ligand-DNA complexes, the mixture was mixed with strand separation buffer containing 10 mM EDTA, 10 mM NaOH, 0.1% bromophenol blue, 80% formamide and incubated at 100° C. for 3 min. The mixture was then immediately cooled on ice and run on an 8% denaturing gel.\nFootprinting reactions were performed as previously described^[5] using the DNA fragments HexA and HexB, which together contain all 64 symmetrical hexanucleotide sequences^[6], and MS1 that contains all possible […] tetranucleotide sequences^[7]. The DNA fragments were obtained by cutting the parent plasmids with HindIII and SacI (for HexA and MS1) or EcoRI and PstI (for HexB), and were labelled at the 3′-end of the HindIII or EcoRI sites with [α-^32P]dATP using reverse transcriptase or exo-Klenow fragment. After gel purification, the radiolabelled DNA was dissolved in 10 mM Tris-HCl pH 7.5 containing 0.1 mM EDTA, at a concentration of about 10 c.p.s per μL as determined on a hand held Geiger counter. 1.5 μL of radiolabelled DNA was mixed with 1.5 μL ligand that had been freshly diluted in 10 mM Tris-HCl pH 7.5, containing 10 mM NaCl. […]"}, "[2]": {"system": "linear 32P-end-labelled HexA DNA", "assay": "DNA interstrand cross-linking assay (denaturing polyacrylamide gel)", "format": "biochemical", "settings": "overnight incubation at 37° C.", "method": "The ability of 26 and 34 to cross-link DNA was determined using an assay involving linear double-stranded HexA. TyrT and MS1 DNA fragments (FIG. 5).\nFollowing denaturation conditions (treatment with formamide and heating at 65° C. for 5 min) the DNA strands were completely separated (see control C2, FIG. 6). The presence of an interstrand cross-link holds the denatured strands in close proximity, and cross-linked adducts therefore run as double-stranded DNA on polyacrylamide gel. Talirine and 34 were tested at >10 different concentrations, and the assay was repeated twice. […] C1 and C2 represent controls where C1 is DNA without formic acid, and C2 is DNA without formic acid, but heated thereby forming single strands. Cross-links are clearly detectable at concentrations as low as 10 nM. Using the same assay, the PBD dimer Talirine was also shown to cross-link DNA down to a concentration of 10 nM (FIG. 7).\nThe preparation of the DNA fragments (FIG. 5) has been previously described^[4]. Briefly, the sequence which had been cloned into the BamHI site of pUC18 was obtained by cutting with HindIII and EcoRI. Radiolabelled DNA fragments were prepared by filling in the 3′-end of the HindIII site with [α-^32P]dATP using Klenow DNA polymerase (exo-).\nThe radiolabelled DNA fragment was separated from the remainder of the plasmid DNA on a 6% non-denaturing polyacrylamide gel. […]"}}}
{"smiles": "CNS(=O)(=O)c1ccc(C2=CCN3C(=O)c4cc(OC)c(OCc5cccc(COc6cc7c(cc6OC)C(=O)N6CC=C(c8ccc(S(=O)(=O)NC)cc8)C[C@H]6C=N7)n5)cc4N=C[C@@H]3C2)cc1", "note": "[Compound 34, 4,4′-((6aS,6a′S)-((Pyridine-2,6-diylbis(methylene))bis(oxy))bis(2-methoxy-12-oxo-6a,7,10,12-tetrahydrobenzo[e]pyrido[1,2-α][1,4]diazepine-3,8-diyl))bis(N-methylbenzenesulfonamide)]", "values": [{"measurement": "general code of the footprints (preferred binding sites)", "setting": "[1]", "result": "XYWWYWYX"}, {"measurement": "lowest concentration at which DNA interstrand cross-links are detectable", "setting": "[2]", "result": 10, "unit": "nM"}]}
